Source: US20240246942A1, “KINASE INHIBITORS FOR THE TREATMENT OF NEURODEGENERATIVE DISEASES” (priority 2020, published 2024)

How the values were obtained:
Assay in all cases: biochemical
[1] = target: T1, panel of 374 wild-type kinases (Homo sapiens, UniProt Q13188); conditions: read-out: % Enzyme Activity (relative to DMSO controls), MST2/STK3
T1 construct: purchased Reaction Biology Corporation
T1 sequence (Q13188 1-491): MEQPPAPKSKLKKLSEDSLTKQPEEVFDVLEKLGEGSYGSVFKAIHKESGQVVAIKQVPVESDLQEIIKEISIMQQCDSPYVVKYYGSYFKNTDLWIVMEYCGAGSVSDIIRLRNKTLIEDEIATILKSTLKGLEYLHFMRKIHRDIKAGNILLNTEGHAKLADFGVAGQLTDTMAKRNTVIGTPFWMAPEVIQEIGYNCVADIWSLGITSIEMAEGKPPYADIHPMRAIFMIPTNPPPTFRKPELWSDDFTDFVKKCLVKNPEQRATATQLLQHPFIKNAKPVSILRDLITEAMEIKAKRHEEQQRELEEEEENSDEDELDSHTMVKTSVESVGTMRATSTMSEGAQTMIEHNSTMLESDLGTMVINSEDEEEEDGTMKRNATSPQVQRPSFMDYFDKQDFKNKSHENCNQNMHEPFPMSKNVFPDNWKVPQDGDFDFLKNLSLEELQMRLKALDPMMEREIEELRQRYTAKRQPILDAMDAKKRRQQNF

[2] = target: T2, panel of 374 wild-type kinases (Homo sapiens, UniProt Q09013); conditions: read-out: % Enzyme Activity (relative to DMSO controls), DMPK
T2 construct: purchased Reaction Biology Corporation
T2 sequence (Q09013 1-629): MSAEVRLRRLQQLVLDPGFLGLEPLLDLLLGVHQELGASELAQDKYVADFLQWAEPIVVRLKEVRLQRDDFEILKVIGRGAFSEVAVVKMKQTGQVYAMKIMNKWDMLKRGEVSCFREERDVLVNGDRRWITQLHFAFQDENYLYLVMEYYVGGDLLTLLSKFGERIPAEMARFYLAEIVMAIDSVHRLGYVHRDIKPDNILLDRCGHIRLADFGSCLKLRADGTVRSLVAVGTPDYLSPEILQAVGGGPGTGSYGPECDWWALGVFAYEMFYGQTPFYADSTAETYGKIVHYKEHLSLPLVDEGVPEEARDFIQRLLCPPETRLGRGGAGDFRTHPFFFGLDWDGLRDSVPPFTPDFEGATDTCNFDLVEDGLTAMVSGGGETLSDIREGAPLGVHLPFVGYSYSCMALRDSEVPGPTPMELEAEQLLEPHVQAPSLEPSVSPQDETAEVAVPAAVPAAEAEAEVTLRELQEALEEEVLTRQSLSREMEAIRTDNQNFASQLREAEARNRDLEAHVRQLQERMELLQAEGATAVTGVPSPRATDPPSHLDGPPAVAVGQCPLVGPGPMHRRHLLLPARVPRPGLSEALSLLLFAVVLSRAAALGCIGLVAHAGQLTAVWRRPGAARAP

[3] = target: T3, panel of 374 wild-type kinases (Homo sapiens, UniProt Q32MK0); conditions: read-out: % Enzyme Activity (relative to DMSO controls), MYLK3
T3 construct: purchased Reaction Biology Corporation
T3 sequence (Q32MK0 1-819): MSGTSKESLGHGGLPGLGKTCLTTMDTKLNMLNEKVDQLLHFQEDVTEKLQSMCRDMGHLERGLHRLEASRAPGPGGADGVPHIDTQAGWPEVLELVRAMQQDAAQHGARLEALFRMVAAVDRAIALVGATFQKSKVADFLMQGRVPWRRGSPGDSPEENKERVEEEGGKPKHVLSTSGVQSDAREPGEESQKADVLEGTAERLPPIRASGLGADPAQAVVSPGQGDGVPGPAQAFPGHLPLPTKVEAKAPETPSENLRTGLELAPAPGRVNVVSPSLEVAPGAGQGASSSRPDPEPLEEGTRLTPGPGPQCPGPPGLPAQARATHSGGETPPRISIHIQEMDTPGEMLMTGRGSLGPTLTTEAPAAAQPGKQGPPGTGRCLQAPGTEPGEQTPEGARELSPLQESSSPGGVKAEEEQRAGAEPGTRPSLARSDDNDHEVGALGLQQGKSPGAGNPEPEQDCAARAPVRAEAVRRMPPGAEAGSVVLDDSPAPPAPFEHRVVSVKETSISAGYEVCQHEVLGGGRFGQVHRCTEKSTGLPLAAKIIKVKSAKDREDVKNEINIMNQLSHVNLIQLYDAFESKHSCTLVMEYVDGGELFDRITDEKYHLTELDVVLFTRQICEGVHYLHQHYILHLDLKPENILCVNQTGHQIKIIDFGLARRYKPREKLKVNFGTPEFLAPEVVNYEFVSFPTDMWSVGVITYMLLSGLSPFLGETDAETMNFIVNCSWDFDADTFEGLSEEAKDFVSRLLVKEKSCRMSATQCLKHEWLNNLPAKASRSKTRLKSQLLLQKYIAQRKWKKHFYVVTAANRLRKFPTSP

[4] = target: T4, panel of 374 wild-type kinases (Homo sapiens, UniProt Q9H4B4); conditions: read-out: % Enzyme Activity (relative to DMSO controls), kinase PLK3
T4 construct: purchased Reaction Biology Corporation

[5] = target: T5, panel of 374 wild-type kinases (Homo sapiens, UniProt P11309); conditions: read-out: % Enzyme Activity (relative to DMSO controls), kinase PIM1
T5 construct: purchased Reaction Biology Corporation

[6] = target: T6, panel of 374 wild-type kinases (Homo sapiens, UniProt Q86UE8); conditions: read-out: % Enzyme Activity (relative to DMSO controls), kinase TLK2
T6 construct: purchased Reaction Biology Corporation
T6 sequence (Q86UE8 whole entry): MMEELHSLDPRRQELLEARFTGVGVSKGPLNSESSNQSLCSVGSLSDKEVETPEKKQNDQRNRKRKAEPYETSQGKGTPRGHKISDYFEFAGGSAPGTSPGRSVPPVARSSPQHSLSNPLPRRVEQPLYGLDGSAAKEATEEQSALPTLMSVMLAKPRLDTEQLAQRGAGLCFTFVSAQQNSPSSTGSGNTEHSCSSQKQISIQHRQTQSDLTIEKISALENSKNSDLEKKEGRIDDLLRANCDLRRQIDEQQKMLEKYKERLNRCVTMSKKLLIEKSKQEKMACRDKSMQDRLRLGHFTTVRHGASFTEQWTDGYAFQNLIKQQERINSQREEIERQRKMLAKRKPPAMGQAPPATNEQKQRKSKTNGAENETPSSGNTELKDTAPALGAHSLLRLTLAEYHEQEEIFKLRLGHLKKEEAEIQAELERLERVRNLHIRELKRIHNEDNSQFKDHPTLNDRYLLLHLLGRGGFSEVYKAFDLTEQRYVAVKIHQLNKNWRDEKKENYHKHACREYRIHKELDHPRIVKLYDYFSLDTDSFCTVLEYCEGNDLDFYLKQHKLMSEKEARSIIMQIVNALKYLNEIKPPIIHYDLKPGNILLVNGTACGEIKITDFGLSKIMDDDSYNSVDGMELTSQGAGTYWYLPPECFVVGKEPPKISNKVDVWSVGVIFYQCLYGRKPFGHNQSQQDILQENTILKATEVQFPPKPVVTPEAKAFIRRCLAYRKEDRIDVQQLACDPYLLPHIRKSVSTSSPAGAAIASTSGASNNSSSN

T4 sequence (Q9H4B4 whole entry): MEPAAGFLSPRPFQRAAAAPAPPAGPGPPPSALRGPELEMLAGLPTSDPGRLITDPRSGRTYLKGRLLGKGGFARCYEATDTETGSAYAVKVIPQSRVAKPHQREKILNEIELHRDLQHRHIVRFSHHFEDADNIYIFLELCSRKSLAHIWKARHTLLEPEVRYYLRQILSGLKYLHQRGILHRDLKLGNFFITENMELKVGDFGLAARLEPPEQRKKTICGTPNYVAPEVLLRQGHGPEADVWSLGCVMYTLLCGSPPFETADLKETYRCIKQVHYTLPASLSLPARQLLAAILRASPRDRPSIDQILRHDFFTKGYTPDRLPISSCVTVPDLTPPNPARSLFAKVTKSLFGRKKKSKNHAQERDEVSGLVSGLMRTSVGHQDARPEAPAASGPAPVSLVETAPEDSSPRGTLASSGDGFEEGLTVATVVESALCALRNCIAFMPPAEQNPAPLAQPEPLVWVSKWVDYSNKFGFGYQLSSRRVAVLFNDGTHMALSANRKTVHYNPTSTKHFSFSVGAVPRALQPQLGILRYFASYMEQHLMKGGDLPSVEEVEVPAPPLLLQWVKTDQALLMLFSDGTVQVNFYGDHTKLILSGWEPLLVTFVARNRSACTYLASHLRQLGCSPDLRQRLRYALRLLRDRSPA
T5 sequence (P11309 whole entry): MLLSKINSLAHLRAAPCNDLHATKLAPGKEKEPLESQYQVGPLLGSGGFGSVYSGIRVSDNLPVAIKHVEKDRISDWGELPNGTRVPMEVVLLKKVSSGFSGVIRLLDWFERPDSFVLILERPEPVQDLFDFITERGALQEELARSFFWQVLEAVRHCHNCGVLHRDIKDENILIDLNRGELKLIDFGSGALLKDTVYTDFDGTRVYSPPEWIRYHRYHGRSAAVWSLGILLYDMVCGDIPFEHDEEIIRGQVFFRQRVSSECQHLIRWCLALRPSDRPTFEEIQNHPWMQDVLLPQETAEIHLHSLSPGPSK

Structure (SMILES): O=C(Nc1cnn(-c2csc(C(=O)NC3COC3)c2)c1)Nc1ccccc1Cl [Compound 17, 4-(4-(3-(2-chlorophenyl)ureido)-1H-pyrazol-1-yl)-N-(oxetan-3-yl)thiophene-2-carboxamide]
- remaining activity at 5 µM [1]: 120%
- remaining activity at 5 µM [2]: 102%
- remaining activity at 5 µM [3]: 95.1%
- remaining activity at 5 µM [4]: 96.1%
- remaining activity at 5 µM [5]: 64.6%
- remaining activity at 5 µM [6]: 99.1%

Structure (SMILES): Cc1sc(C(=O)NC2COC2)cc1-n1cc(NC(=O)Nc2c(F)cccc2Cl)cn1 [Compound 27, 4-(4-(3-(2-chloro-6-fluorophenyl)ureido)-1H-pyrazol-1-yl)-5-methyl-N-(oxetan-3-yl)thiophene-2-carboxamide]
- remaining activity at 10 µM ([1]; 10 uM): 93.9%
- remaining activity at 10 µM ([2]; 10 uM): 95.2%
- remaining activity at 10 µM ([3]; 10 uM): 112%
- remaining activity at 10 µM ([4]; 10 uM): 102%
- remaining activity at 10 µM ([5]; 10 uM): 95.1%
- remaining activity at 10 µM ([6]; 10 uM): 97.2%

Structure (SMILES): O=C(Nc1cnn(-c2csc(C(=O)NC3COC3)c2)c1)Nc1c(F)cccc1Cl [Compound 25, 4-(4-(3-(2-chloro-6-fluorophenyl)ureido)-1H-pyrazol-1-yl)-N-(oxetan-3-yl)thiophene-2-carboxamide]
- remaining activity at 5 µM [1]: 93.2%
- remaining activity at 5 µM [2]: 110%
- remaining activity at 5 µM [3]: 102%
- remaining activity at 5 µM [4]: 96%
- remaining activity at 5 µM [5]: 73.3%
- remaining activity at 5 µM [6]: 109%
